Broadly, the IC50 is the point on the concentration scale where inhibition reaches its midpoint. What is called melting point is the temperature, or range, at which the solid turns liquid. As usually defined, the inhibition is how much of the control response was suppressed.

This is an account of results in US8263606B2 (Xenon Pharmaceuticals Inc., priority 2008, dated 2012).

One series relates to sodium channel. Nature of the series: Guanidine influx assay (14C-guanidine radiotracer flux, in vitro). It is filed as cell-based, human or rat. The note with it: guanidine influx assay using a known cell line that expresses a sodium channel. In short, it runs like this:
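Aconitine holds channels open while 14C-guanidine enters human or rat sodium-channel-expressing cells in choline-substituted low-sodium saline, with test agent present at ambient temperature. Retained tracer is scintillation-counted and IC50 fitted by a four-parameter logistic model.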

For series [1], the system named is inactivated state of the channel of interest (sodium channel). Nature of the series: Electrophysiological assay (whole cell voltage clamp, in vitro). It is filed as cell-based. The note with it: affinity for the inactivated state of the channel of interest. As to the method: Cells expressing the channel of interest are cultured in DMEM growth media (Gibco) with 0.5 mg/mL G418, +/−1% PSG, and 10% heat-inactivated fetal bovine serum at 37° C. and 5% CO2. For electrophysiological recordings, cells are plated on 10 mm dishes.
Whole cell recordings are examined by established methods of whole cell voltage clamp (Bean et al., op. cit.) using an Axopatch 200B amplifier and Clampex software (Axon Instruments, Union City, Calif.). All experiments are performed at ambient temperature. Electrodes are fire-polished to resistances of 2-4 Mohms Voltage errors and capacitance artifacts are minimized by series resistance compensation and capacitance compensation, respectively. Data are acquired at 40 kHz and filtered at 5 kHz. The external (bath) solution consists of: NaCl (140 mM), KCl (5 mM), CaCl2 (2 mM), MgCl2 (1 mM), HEPES (10 mM) at pH 7.4. The internal (pipette) solution consists of (in mM): NaCl (5), CaCl2 (0.1), MgCl2 (2), CsCl (10), CsF (120), HEPES (10), EGTA (10), at pH 7.2.
To estimate the steady-state affinity of compounds for the resting and inactivated state of the channel (Kr and Ki, respectively), 12.5 ms test pulses to depolarizing voltages from −60 to +90 mV from a holding potential of −120 m V is used to construct current-voltage relationships (I-V curves). A voltage near the peak of the IV-curve (−30 to 0 m V) is used as the test pulse throughout the remainder of the experiment. Steady-state inactivation (availability) curves are then constructed by measuring the current activated during a 8.75 ms test pulse following 1 second conditioning pulses to potentials ranging from −120 to −10 m V.
The steady-state voltage-dependence of binding of a compound to a sodium channel is determined by measuring the blockage of the ionic current at two holding potentials. Binding to rested-state channels is determined by using a holding potential of −120 mV, so that maximal availability is achieved. Binding to inactivated-state channels is evaluated at a holding potential such that only 10% of the channels are available to open. The membrane potential is held at this voltage for at least 10 seconds so that drug binding can equilibrate.
The apparent dissociation constant at each voltage is calculated with the equation:
[formula] where Kd is the dissociation constant (either Kr or Ki), and [Drug] is the concentration of the test compound.
The Example numbers provided in Table 3 correspond to the Examples herein: […]

For a further series, the target named is CYP3A4 (Homo sapiens, UniProt P08684). The experiment in a line: Cytochrome P450 (CYP450) Inhibition Assay, CYP3A4 (Vivid fluorescence, BOMCC substrate). The note with it: human, P450 Baculosomes (recombinant CYP3A4), probe BOMCC (Vivid substrate).

The structures appear in SMILES notation.

Sequence of CYP3A4 (P08684 whole entry): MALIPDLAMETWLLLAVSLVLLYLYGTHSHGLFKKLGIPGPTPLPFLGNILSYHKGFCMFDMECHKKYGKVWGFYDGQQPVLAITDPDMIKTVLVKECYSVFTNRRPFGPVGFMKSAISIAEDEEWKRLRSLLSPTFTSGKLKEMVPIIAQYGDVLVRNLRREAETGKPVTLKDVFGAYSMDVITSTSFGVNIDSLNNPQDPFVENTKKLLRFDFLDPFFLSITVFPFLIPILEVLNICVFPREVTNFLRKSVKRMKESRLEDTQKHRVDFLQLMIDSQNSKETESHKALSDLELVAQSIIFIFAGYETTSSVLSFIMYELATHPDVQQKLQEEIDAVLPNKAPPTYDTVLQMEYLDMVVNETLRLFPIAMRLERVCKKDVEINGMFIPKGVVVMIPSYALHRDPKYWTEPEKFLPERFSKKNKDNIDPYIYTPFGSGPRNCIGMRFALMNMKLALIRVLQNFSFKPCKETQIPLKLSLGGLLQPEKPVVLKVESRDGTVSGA

Turning to `O=C1N(Cc2cccnc2)c2ccccc2C12COc1cc3c(cc12)OCCO3` (stereo not shown) [Example 1.2, 1-(pyridin-3-ylmethyl)-2,3-dihydrospiro[furo[2,3-g][1,4]benzodioxine-8,3′-indol]-2′(1′H)-one], the melting point was 142 to 143 °C. Besides, the IC50 in the series on sodium channel (activity level class) lay within 1 to 100 nM. The compound also had a Ki in series [1] of over 300 nM. Also, the inhibition at 10 µM at CYP3A4 was under 50%.

As to `O=C1N(C[C@H]2COCCO2)c2ccccc2[C@]12COc1cc3c(cc12)OCCO3` [Example 8.7, (8S)-1′-[(2S)-1,4-dioxan-2-ylmethyl]-2,3-dihydrospiro[furo[2,3-g][1,4]benzodioxine-8,3′-indol]-2′(1′H)-one], the melting point lay within 198 to 200 °C. Further, the IC50 in the series with sodium channel (activity level class) fell in the range of 1 to 100 nM. This compound also yielded a Ki in series [1] of over 300 nM.

Regarding `O=C1N(C[C@H]2CCCO2)c2ccccc2[C@@]12COc1cc3c(cc12)CCO3` [Example 11.67, (3R)-1′-[(2R)-tetrahydrofuran-2-ylmethyl]-5,6-dihydrospiro[benzo[1,2-b:5,4-b′]difuran-3,3′-indol]-2′(1′H)-one], the IC50 in the series on sodium channel lay within 1000 to 10000 nM. For the same compound, the Ki in series [1] is over 300 nM. Besides, the inhibition at 10 µM on CYP3A4 was under 50%.

As to `O=C1N(C[C@@H]2CCCO2)c2ccccc2[C@]12COc1cc3c(cc12)CCO3` [Example 11.69, (3S)-1′-[(2S)-tetrahydrofuran-2-ylmethyl]-5,6-dihydrospiro[benzo[1,2-b:5,4-b′]difuran-3,3′-indol]-2′(1′H)-one], the concentration for half-maximal inhibition (IC50) in the series on sodium channel was 1000 to 10000 nM. In series [1], this compound showed a Ki of over 300 nM. The inhibition at 10 µM at CYP3A4 is under 50%.

Regarding `CN(C)c1ccc(-c2cccc3c2C2(COc4cc5c(cc42)CCO5)C(=O)N3C[C@H]2CCCO2)cn1` (stereo partly drawn) [Example 16, 4′-[6-(dimethylamino)pyridin-3-yl]-1′-[(2R)-tetrahydrofuran-2-ylmethyl]-5,6-dihydrospiro[benzo[1,2-b:5,4-b′]difuran-3,3′-indol]-2′(1′H)-one], the IC50 in the series with sodium channel lay in the range of 100 to 1000 nM. Besides, the Ki in series [1] is over 300 nM. In addition, the inhibition at 10 µM at CYP3A4 is over 50%.

Turning to `O=C1N(C[C@H]2CCCO2)c2cccc(-c3ccc(Oc4ccccc4)cc3)c2C12COc1cc3c(cc12)CCO3` (stereo partly drawn) [Example 16.6, 4′-(4-phenoxyphenyl)-1′-[(2R)-tetrahydrofuran-2-ylmethyl]-5,6-dihydrospiro[benzo[1,2-b:5,4-b′]difuran-3,3′-indol]-2′(1′H)-one], in the series with sodium channel, the IC50 fell in the range of 100 to 1000 nM. Besides, the Ki in series [1] is under 300 nM. In addition, the inhibition at 10 µM on CYP3A4 was under 50%.

Consider `CC(C)COc1ccc(-c2cccc3c2C2(COc4cc5c(cc42)CCO5)C(=O)N3C[C@H]2CCCO2)cc1` (stereo partly drawn) [Example 16.7, 4′-[4-(2-methylpropoxy)phenyl]-1′-[(2R)-tetrahydrofuran-2-ylmethyl]-5,6-dihydrospiro[benzo[1,2-b:5,4-b′]difuran-3,3′-indol]-2′(1′H)-one], for which the IC50 in the series on sodium channel lay within 100 to 1000 nM. Moreover, the Ki in series [1] is under 300 nM. In addition, at CYP3A4, the inhibition at 10 µM is under 50%.

Consider `COc1ccc(-c2cccc3c2C2(COc4cc5c(cc42)CCO5)C(=O)N3C[C@H]2CCCO2)cc1` (stereo partly drawn) [Example 16.9, 4′-(4-methoxyphenyl)-1′-[(2R)-tetrahydrofuran-2-ylmethyl]-5,6-dihydrospiro[benzo[1,2-b:5,4-b′]difuran-3,3′-indol]-2′(1′H)-one], for which the IC50 in the series on sodium channel was 1 to 100 nM. This compound came in with a Ki in series [1] of under 300 nM. In addition, the inhibition at 10 µM on CYP3A4 is over 50%.

For the compound `O=C1N(C[C@H]2CCCO2)c2cccc(-c3cncnc3)c2C12COc1cc3c(cc12)CCO3` (stereo partly drawn) [Example 16.10, 4′-pyrimidin-5-yl-1′-[(2R)-tetrahydrofuran-2-ylmethyl]-5,6-dihydrospiro[benzo[1,2-b:5,4-b′]difuran-3,3′-indol]-2′(1′H)-one], in the series on sodium channel, the IC50 lay within 1000 to 10000 nM. Further, the Ki in series [1] was over 300 nM. In addition, the inhibition at 10 µM at CYP3A4 was over 50%.
